Assay results as given in PubChem BioAssay (NCI).
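The compound was tested at five concentrations on cells cultured in 96-well plates, with a 48-hour exposure period. At the GI50, growth is halved. TGI marks complete inhibition of growth.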

What was measured:
Test in all cases: growth of human tumour cells (NCI), 48 h
OVCAR-8 ovarian = tested on: OVCAR-8 ovarian
SK-MEL-5 melanoma = tested on: SK-MEL-5 melanoma
OVCAR-3 ovarian = tested on: OVCAR-3 ovarian
K-562 leukemia = tested on: K-562 leukemia
SN12C renal = tested on: SN12C renal
HL-60(TB) leukemia = tested on: HL-60(TB) leukemia
ACHN renal = tested on: ACHN renal
COLO 205 colon = tested on: COLO 205 colon
HCT-116 colon = tested on: HCT-116 colon
HS 578T breast = tested on: HS 578T breast
SK-OV-3 ovarian = tested on: SK-OV-3 ovarian
NCI/ADR-RES ovarian = tested on: NCI/ADR-RES ovarian
RPMI-8226 leukemia = tested on: RPMI-8226 leukemia
SW-620 colon = tested on: SW-620 colon
A498 renal = tested on: A498 renal
SK-MEL-28 melanoma = tested on: SK-MEL-28 melanoma
SK-MEL-2 melanoma = tested on: SK-MEL-2 melanoma
BT-549 breast = tested on: BT-549 breast
CAKI-1 renal = tested on: CAKI-1 renal
HOP-62 NSCLC = tested on: HOP-62 NSCLC
DU-145 prostate = tested on: DU-145 prostate
SNB-75 CNS = tested on: SNB-75 CNS
HCT-15 colon = tested on: HCT-15 colon
KM12 colon = tested on: KM12 colon
UACC-62 melanoma = tested on: UACC-62 melanoma
SNB-19 CNS = tested on: SNB-19 CNS
HCC-2998 colon = tested on: HCC-2998 colon
SF-268 CNS = tested on: SF-268 CNS
786-0 renal = tested on: 786-0 renal
EKVX NSCLC = tested on: EKVX NSCLC
IGROV1 ovarian = tested on: IGROV1 ovarian
UO-31 renal = tested on: UO-31 renal
UACC-257 melanoma = tested on: UACC-257 melanoma
T-47D breast = tested on: T-47D breast
PC-3 prostate = tested on: PC-3 prostate
NCI-H522 lung = tested on: NCI-H522 lung
NCI-H226 lung = tested on: NCI-H226 lung
MALME-3M melanoma = tested on: MALME-3M melanoma
MCF7 breast = tested on: MCF7 breast
OVCAR-5 ovarian = tested on: OVCAR-5 ovarian
SF-539 CNS = tested on: SF-539 CNS
M14 melanoma = tested on: M14 melanoma
NCI-H460 lung = tested on: NCI-H460 lung
MDA-MB-435 = tested on: MDA-MB-435
MDA-MB-231 breast = tested on: MDA-MB-231 breast
MOLT-4 leukemia = tested on: MOLT-4 leukemia
OVCAR-4 ovarian = tested on: OVCAR-4 ovarian
HT29 colon = tested on: HT29 colon
HOP-92 NSCLC = tested on: HOP-92 NSCLC
U251 CNS = tested on: U251 CNS
TK-10 renal = tested on: TK-10 renal
LOX IMVI melanoma = tested on: LOX IMVI melanoma
NCI-H23 lung = tested on: NCI-H23 lung
SR leukemia = tested on: SR leukemia
RXF 393 renal = tested on: RXF 393 renal
SF-295 CNS = tested on: SF-295 CNS
A549 NSCLC = tested on: A549 NSCLC
CCRF-CEM leukemia = tested on: CCRF-CEM leukemia

Work on `C[N+](C)=C/C=C(\Cl)c1ccc2ccccc2c1` yielded a TGI (OVCAR-8 ovarian) of 31.6 µM, a TGI (SK-MEL-5 melanoma) of 36.5 µM and a TGI (OVCAR-3 ovarian) of 13.4 µM. For the same molecule, the TGI (K-562 leukemia) was > 33.2 µM, the TGI (SN12C renal) was 50 µM and the TGI (HL-60(TB) leukemia) was 38.5 µM. For the same molecule, the TGI (ACHN renal) was 28.5 µM, the TGI (COLO 205 colon) was 41.4 µM and the TGI (HCT-116 colon) was 9.79 µM. The TGI (HS 578T breast) was > 100 µM, the TGI (SK-OV-3 ovarian) was 38.2 µM and the TGI (NCI/ADR-RES ovarian) was 17.3 µM. The TGI (RPMI-8226 leukemia) was 14.6 µM, the TGI (SW-620 colon) was 29.2 µM and the TGI (A498 renal) was > 100 µM. For the same molecule, the TGI (SK-MEL-28 melanoma) was 11.1 µM, the TGI (SK-MEL-2 melanoma) was 59.9 µM and the TGI (BT-549 breast) was 38.6 µM. For the same molecule, the TGI (CAKI-1 renal) was 25 µM, the TGI (HOP-62 NSCLC) was 35 µM and the TGI (DU-145 prostate) was 28.8 µM. The TGI (SNB-75 CNS) was > 58.2 µM, the TGI (HCT-15 colon) was 11.2 µM and the TGI (KM12 colon) was 32.3 µM. It also gave a TGI (UACC-62 melanoma) of 29.9 µM, a TGI (SNB-19 CNS) of 38.5 µM and a TGI (HCC-2998 colon) of 20.7 µM. For the same molecule, the TGI (SF-268 CNS) was 67 µM, the TGI (786-0 renal) was 28.9 µM and the TGI (EKVX NSCLC) was 60.1 µM. The TGI (IGROV1 ovarian) was 34.9 µM, the TGI (UO-31 renal) was 32.6 µM and the TGI (UACC-257 melanoma) was 36.8 µM. It also gave a TGI (T-47D breast) of 48.3 µM, a TGI (PC-3 prostate) of 43.5 µM and a TGI (NCI-H522 lung) of 67.8 µM. For the same molecule, the TGI (NCI-H226 lung) was 41.4 µM, the TGI (MALME-3M melanoma) was 27.8 µM and the TGI (MCF7 breast) was > 73.4 µM. It also gave a TGI (OVCAR-5 ovarian) of 39.8 µM, a TGI (SF-539 CNS) of 58.7 µM and a TGI (M14 melanoma) of 23.2 µM. The TGI (NCI-H460 lung) was 57.6 µM, the TGI (MDA-MB-435) was 36 µM and the TGI (MDA-MB-231 breast) was 28.8 µM. For the same molecule, the TGI (MOLT-4 leukemia) was 3.67 µM, the TGI (OVCAR-4 ovarian) was 11.6 µM and the TGI (HT29 colon) was 28.4 µM. For the same molecule, the TGI (HOP-92 NSCLC) was 53.3 µM, the TGI (U251 CNS) was 27.8 µM and the TGI (TK-10 renal) was 33.4 µM. The TGI (LOX IMVI melanoma) was 12.8 µM, the TGI (NCI-H23 lung) was 17.1 µM and the TGI (SR leukemia) was 4.26 µM. For the same molecule, the TGI (RXF 393 renal) was 47.9 µM, the TGI (SF-295 CNS) was 33.8 µM and the TGI (A549 NSCLC) was > 100 µM.

In the case of `Cc1ccc(-c2cc(C(=O)N3N=C(c4ccc(N)cc4)CC3c3ccc(Cl)cc3)c3ccccc3n2)cc1` (centres undefined), the GI50 (OVCAR-8 ovarian) is reported as 5.25 µM, the TGI (OVCAR-8 ovarian) is reported as > 100 µM and the GI50 (SK-MEL-5 melanoma) is reported as 2.5 µM. For the same molecule, the TGI (SK-MEL-5 melanoma) was > 100 µM, the GI50 (OVCAR-3 ovarian) was 2.98 µM and the TGI (OVCAR-3 ovarian) was 36.6 µM. For the same molecule, the GI50 (K-562 leukemia) was 3.09 µM, the TGI (K-562 leukemia) was > 100 µM and the GI50 (SN12C renal) was 6.84 µM. The TGI (SN12C renal) was > 100 µM, the GI50 (HL-60(TB) leukemia) was 3.49 µM and the TGI (HL-60(TB) leukemia) was > 100 µM. The GI50 (ACHN renal) was 4.19 µM, the TGI (ACHN renal) was > 100 µM and the GI50 (COLO 205 colon) was 2.8 µM. For the same molecule, the TGI (COLO 205 colon) was 9.48 µM, the GI50 (HCT-116 colon) was 3.18 µM and the TGI (HCT-116 colon) was > 100 µM. For the same molecule, the GI50 (HS 578T breast) was 4.68 µM, the TGI (HS 578T breast) was > 100 µM and the GI50 (SK-OV-3 ovarian) was 4.94 µM. For the same molecule, the TGI (SK-OV-3 ovarian) was > 100 µM, the GI50 (NCI/ADR-RES ovarian) was 2.54 µM and the TGI (NCI/ADR-RES ovarian) was > 100 µM. The GI50 (RPMI-8226 leukemia) was 4.1 µM, the TGI (RPMI-8226 leukemia) was > 100 µM and the GI50 (SW-620 colon) was 4.24 µM. For the same molecule, the TGI (SW-620 colon) was > 100 µM, the GI50 (A498 renal) was 1.64 µM and the TGI (A498 renal) was 6.5 µM. The GI50 (SK-MEL-28 melanoma) was 6.23 µM, the TGI (SK-MEL-28 melanoma) was > 100 µM and the GI50 (SK-MEL-2 melanoma) was 3.81 µM. The TGI (SK-MEL-2 melanoma) was > 100 µM, the GI50 (BT-549 breast) was 3.92 µM and the TGI (BT-549 breast) was > 100 µM. For the same molecule, the GI50 (HOP-62 NSCLC) was 4.62 µM, the TGI (HOP-62 NSCLC) was > 100 µM and the GI50 (DU-145 prostate) was 3.68 µM. The TGI (DU-145 prostate) was > 100 µM, the GI50 (SNB-75 CNS) was 1.41 µM and the TGI (SNB-75 CNS) was 6.68 µM. For the same molecule, the GI50 (HCT-15 colon) was 3.33 µM, the TGI (HCT-15 colon) was > 100 µM and the GI50 (KM12 colon) was 3.46 µM. For the same molecule, the TGI (KM12 colon) was > 100 µM, the GI50 (UACC-62 melanoma) was 2.06 µM and the TGI (UACC-62 melanoma) was > 100 µM. For the same molecule, the GI50 (SNB-19 CNS) was 6.51 µM, the TGI (SNB-19 CNS) was > 100 µM and the GI50 (HCC-2998 colon) was 4.28 µM. The TGI (HCC-2998 colon) was > 100 µM, the GI50 (SF-268 CNS) was 4.09 µM and the TGI (SF-268 CNS) was > 100 µM. For the same molecule, the GI50 (786-0 renal) was 4.22 µM, the TGI (786-0 renal) was > 100 µM and the GI50 (EKVX NSCLC) was 3.99 µM. The TGI (EKVX NSCLC) was > 100 µM, the GI50 (IGROV1 ovarian) was 6.48 µM and the TGI (IGROV1 ovarian) was > 100 µM. For the same molecule, the GI50 (UO-31 renal) was 2.2 µM, the TGI (UO-31 renal) was > 100 µM and the GI50 (UACC-257 melanoma) was 33.7 µM. The TGI (UACC-257 melanoma) was > 100 µM, the GI50 (T-47D breast) was 2.73 µM and the TGI (T-47D breast) was > 100 µM. The GI50 (PC-3 prostate) was 3.4 µM, the TGI (PC-3 prostate) was > 100 µM and the GI50 (NCI-H522 lung) was 0.622 µM. For the same molecule, the TGI (NCI-H522 lung) was 4.21 µM, the GI50 (NCI-H226 lung) was 6.47 µM and the TGI (NCI-H226 lung) was > 100 µM. The GI50 (MALME-3M melanoma) was > 100 µM, the TGI (MALME-3M melanoma) was > 100 µM and the GI50 (MCF7 breast) was 2.53 µM. For the same molecule, the TGI (MCF7 breast) was > 100 µM, the GI50 (OVCAR-5 ovarian) was 8.43 µM and the TGI (OVCAR-5 ovarian) was > 100 µM. It also gave a GI50 (SF-539 CNS) of 2.43 µM, a TGI (SF-539 CNS) of 8.1 µM and a GI50 (NCI-H460 lung) of 3.51 µM. The TGI (NCI-H460 lung) was > 100 µM, the GI50 (MDA-MB-435) was 1 µM and the TGI (MDA-MB-435) was 3.66 µM. It also gave a GI50 (MDA-MB-231 breast) of 3.94 µM, a TGI (MDA-MB-231 breast) of 92.2 µM and a GI50 (MOLT-4 leukemia) of 3.23 µM. For the same molecule, the TGI (MOLT-4 leukemia) was > 100 µM, the GI50 (OVCAR-4 ovarian) was 4.71 µM and the TGI (OVCAR-4 ovarian) was > 100 µM. The GI50 (HT29 colon) was 3.35 µM, the TGI (HT29 colon) was > 100 µM and the GI50 (HOP-92 NSCLC) was 4.1 µM. The TGI (HOP-92 NSCLC) was 92.3 µM, the GI50 (U251 CNS) was 4.51 µM and the TGI (U251 CNS) was > 100 µM. For the same molecule, the GI50 (TK-10 renal) was 8.51 µM, the TGI (TK-10 renal) was > 100 µM and the GI50 (LOX IMVI melanoma) was 4 µM. For the same molecule, the TGI (LOX IMVI melanoma) was > 100 µM, the GI50 (NCI-H23 lung) was 5.02 µM and the TGI (NCI-H23 lung) was > 100 µM. The GI50 (SR leukemia) was 3.29 µM, the TGI (SR leukemia) was > 100 µM and the GI50 (CCRF-CEM leukemia) was 4.53 µM. For the same molecule, the TGI (CCRF-CEM leukemia) was > 100 µM, the GI50 (RXF 393 renal) was 1.63 µM and the TGI (RXF 393 renal) was 7.06 µM. The GI50 (SF-295 CNS) was 3.13 µM, the TGI (SF-295 CNS) was > 100 µM and the GI50 (A549 NSCLC) was 4.79 µM. For the same molecule, the TGI (A549 NSCLC) was > 100 µM.
